Measured values from patent US10017524B2, “Compound and pharmaceutical composition for neuropsychological disorder or malignant tumor” (KYOTO UNIVERSITY, priority 2012, dated 2018).

Legend:
[1] = tested on: phosphorylation of a threonine residue at position 212 of tau protein by DYRK1A protein; test: Inhibitory activity on phosphorylation of tau protein in cultured cells expressing tau and DYRK1A (western blot, Thr212); format: cell-based; details: compounds of 10 μM, phospho-Thr212 tau, cells expressing tau and DYRK1A
Procedure: The inhibitory activity of the compounds synthesized in the production examples on the phosphorylation of tau protein was evaluated by an evaluation system using the following cultured cells.
The cultured cells that can induce the expressions of tau protein and DYRK1A protein individually and that allow the phosphorylation of the tau protein to be evaluated depending on the activity of the DYRK1A protein were used in the evaluation system. […] Therefore, the inhibitory activity on the phosphorylation of the tau protein can be evaluated by inducing the expressions of both the tau protein and the DYRK1A protein, and evaluating the degree of phosphorylation of a threonine residue at position 212 of the tau protein.
The compounds 1, 4, and 6 to 9 (10 μM) were added to the evaluation system, and the phosphorylation of the tau protein was detected with the antibody that specifically recognizes the phosphorylation of a threonine residue at position 212 of the tau protein. […] The “control” represents the result of adding no compound.
The inhibitory activity of the compounds 1 and 2 on the phosphorylation of tau protein was evaluated in the same manner as the Experimental example 1.
The “control” represents the result of adding no compound.
The inhibitory activity of the compounds 3, 6, and 9 to 15 on the phosphorylation of tau protein was evaluated in the same manner as the experimental example 1. FIGS. 7 to 9 show an example of the results.

[2] = tested on: MDA-MB-453 human breast cancer cells (triple-negative); test: Growth inhibition, adherent and non-adherent culture (Alamar Blue); format: cell-based; details: MDA-MB-453, cells cultured to prevent adhering
Procedure: (§1) Specifically, the cells were seeded on a 24 Well plate, and the compounds at a predetermined concentration were added. After cultivation for 5 days, the number of cells was calculated by detecting the fluorescence intensity with Alamar Blue. The culture medium containing the compounds was replaced every day. FIGS. 10 to 12 show an example of the results.
(§2) In addition, the effect was also confirmed when the target cells were cultured to prevent them from adhering to each other.

[3] = tested on: MDA-MB-468 human breast cancer cells (triple-negative); test: as above; format: cell-based; details: MDA-MB-468, cells cultured to prevent adhering
Procedure: as §1, §2

[4] = tested on: Down's syndrome-derived acute megakaryoblastic leukemia (AMKL) cells KPAM1; test: Inhibition of growth of cancer cells (Alamar Blue); format: cell-based; details: KPAM1, cultivation for 5 days
Procedure: as §1

[5] = tested on: retinoblastoma cell lines WERI; test: Inhibition of growth of cancer cells (Alamar Blue); format: cell-based
Procedure: as §1

[6] = tested on: PC-9-GR-high lines; test: Growth inhibition, microscopic observation; format: cell-based, human; details: microscope
[7] = tested on: human lung adenocarcinoma-derived cell lines (PC-9); test: Growth inhibition, microscopic observation; format: cell-based; details: PC-9 lines, microscope
[8] = tested on: PC-9-GR-step lines (gefitinib-resistant sub-lines of PC-9); test: Growth inhibition, microscopic observation; format: cell-based, human; details: microscope

Q: `CCN1/C(=C/C(C)=O)Sc2ccc3oc4ccccc4c3c21` [Compound 3, (Z)-1-[1-ethylbenzo[2,3]benzofuro[4,5-d]thiazol-2(1H)-ylidene]propan-2-one] was tested. Which “inhibitory effect on the phosphorylation of the tau protein” value [1] did it give?
A: Its value is “inhibitory effect”.

Q: What about the “inhibitory effect on the anchorage-independent growth” value [2] of the same compound?
A: The value was “inhibitory effect”.

Q: What about the “inhibitory effect on the anchorage-independent growth” value [3] of the same compound?
A: Its value is “inhibitory effect”.

Q: What about the “inhibitory effect on the growth of the cancer cells” value [4] of the same compound?
A: Its value is “excellent inhibitory effect”.

Q: And the “inhibitory effect on the growth of the cancer cells” value [5]?
A: Its value is “inhibitory effect”.

Q: What about the “apoptosis-inducing activity on the cancer cells” value (“apoptosis-inducing activity” for short) [6] of the same compound?
A: The value was “excellent apoptosis-inducing activity”.

Q: What about the “apoptosis-inducing activity” value [7] of the same compound?
A: The value was “excellent apoptosis-inducing activity”.

Q: What about the “apoptosis-inducing activity” value [8] of the same compound?
A: Its value is “excellent apoptosis-inducing activity”.
